Laboratory results as given in article PMC12843386, “Ly6/uPAR Protein from Asterias rubens Starfish Stimulates Migration and Invasion of Human Epithelial and Immune Cells” (Marine Drugs, 2025).
Like-named read-outs stand apart in the source and are kept apart here. Bridges are numbered along the chain shown (N, C = ends). Where no end group is shown, it is not given here.

What was measured:
[1] = tested on: HaCaT keratinocytes; assay: Wound-healing (scratch) assay, collective migration of HaCaT keratinocytes; type: cell-based, human; conditions: 10 µM peptide, 24 h, serum-free; % of untreated control; n = 14 (Figure 4a,b)
Description: Human HaCaT keratinocytes (ATCC, Manassas, VA, USA) were grown (37 °C, 8% CO2) in a DME medium with phenol red (PanEco, Moscow, Russia), 10% fetal calf serum (Thermo Fisher Scientific, Waltham, […], USA), and 2 mM L-glutamine (PanEco). Human peripheral blood monocytes were isolated from human donors’ blood (informed written consent was obtained from the donors) with Lymphosep media (MP Biomedicals, Irvine, CA, USA) and cultivated in RPMI-1640 medium with phenol red (PanEco, Russia), 10% fetal calf serum (Thermo Fisher Scientific), and 2 mM L-glutamine (PanEco). All cells were routinely tested for the absence of mycoplasma contamination (Mycoreport kit, Evrogen, Moscow, Russia).
The in vitro wound healing (scratch) assay was performed as described in [35]. In brief, HaCaT cells were seeded in 96-well cell culture plates (5 × 10^4 cells/well) and grown for 24 h. […] Pictures were analyzed after 0 and 24 h at 20× magnification at CloneSelect Imager (Molecular Devices, San Jose, CA, USA). The center of the plate was marked as a central reference point to ensure that the same area was recorded during the time course. Digital images were taken, and the scratch area was quantified using ImageJ 1.54f software (NIH, Bethesda, MD, USA) and MS Excel 365 (Microsoft, Redmond, WA, USA) software by measuring the % of the scratch surface occupied by migrating cells.

[2] = ELISA binding to immobilized membrane fraction of A. rubens arm tip; design: species or system Asterias rubens; conditions: detection by anti-Lystar5 serum, n = 4 (Figure 3b)
Description: Figure 2 Design of the peptides mimicking the loop and “head” regions of Lystar5 and ELISA experiments. (a) Amino acid sequence alignment of Lystar5 and the peptides: loop I (rose), loop II (orange), loop III (blue), and head (green). Cys residues are shown in gold. Disulfide bonds are shown in brackets. Sequences of the peptides are highlighted by colors corresponding to the Lystar5 loops. The amino acids changed to increase the peptides’ stability are designated by lowercase letters. (b) Spatial structure of Lystar5 predicted from the sequence using ESMFold with regions corresponding to the synthesized peptides colored as shown in panel (a,c). Design of ELISA experiments for proof of detection of Lystar5 and the peptides by the anti-Lystar5 serum of immunized mice (left), identification of the active site of Lystar5, and evaluation of the interaction of Lystar5 and the peptides using the immobilized membrane fraction of different A. rubens tissues (center), and study of complex formation between nAChR and integrin subunits in HaCAT keratinocytes (right). […] Recombinant analogue of Lynx2 was used as a negative control. […] Bound compounds were detected by the anti-Lystar5 serum of immunized mouse. […]

[3] = cited from earlier work
Description: Ly6/uPAR proteins from different organisms are currently being considered as prototypes for new drugs.

GEDGCTAATTQLGKRYFADKSRPAWGAVECG (disulfide 5-30 (inferred)) [loop III, C-amidated peptide mimicking loop III of Lystar5: […]]
collective migration of HaCaT keratinocytes (scratch assay), wound closure [1]: did not affect the collective migration

VLKTCTSRQDRCG (disulfide 5-12 (inferred)) [head, C-amidated peptide mimicking the "head" region of Lystar5: […]]
collective migration of HaCaT keratinocytes (scratch assay), wound closure [1]: did not affect the collective migration | binding to the immobilized membrane fraction of the arm tip [2]: neither Lystar5 nor its loops or “head” bound

α-cobratoxin
anti-cancer activity ([3]; snake toxin from Naja kaouthia, ref [45]): effective anti-cancer agents

B1: SLURP-1: human-secreted epithelial protein SLURP-1 (protein, UniProt P55000 23-103, looked up)
Secreted Ly-6/uPAR-related …: LKCYTCKEPMTSASCRTITRCKPEDTACMTTLVTVEAEYPFNQSPVVTRSCSSSCVATDPDSIGAAHLIFCCFRDLCNSEL
anti-cancer activity ([3]; human-secreted epithelial protein, ref [46]): effective anti-cancer agents

B2: Lynx1: human protein Lynx1 found in the nervous system, skin, and lungs (protein, UniProt P0DP58 21-91, looked up)
Ly-6/neurotoxin-like protein 1: LDCHVCAYNGDNCFNPMRCPAMVAYCMTTRTYYTPTRMKVSKSCVPRCFETVYDGYSKHASTTSCCQYDLC
anti-cancer activity ([3]; human protein found in the nervous system, skin, and lungs, ref [47],[48]): effective anti-cancer agents | cognitive dysfunctions related to the cholinergic system decline ([3]; ref [49]): ameliorates cognitive dysfunctions
